Measured values as given in patent publication US20080113926A1, “9A-Carbamoyl-Y-Aminopropyl- And 9A-Thiocabamoyl-Y-Aminopropyl-Azalides With Antimalarial Activity” (priority 2005, published 2008).
In brackets after ≈: the same amount, converted by molar mass.

Assays:
[1] = system: Plasmodium falciparum TM91C235; assay: In vitro antimalarial [3H]-hypoxanthine incorporation serial dilution assay, TM91C235; type: cell-based; conditions: P. falciparum TM91C235, parasites exposed for 72 hours; for IC50: Plasmodium falciparum
[2] = system: Plasmodium falciparum clone CDC/Sierra Leone I (D-6); assay: In vitro antimalarial [3H]-hypoxanthine incorporation serial dilution assay, D6; type: cell-based; conditions: P. falciparum D6, parasites exposed for 72 hours; for IC50: Plasmodium falciparum
Text: (§1) The in vitro screens for intrinsic antimalarial activity were based on modifications of the procedures described by Desjardins R E, Canfield C J, Haynes J D, Chulay J D. (Quantitative assessment of antimalarial activity in vitro by a semiautomated microdilution technique. Antimicrob Agents Chemother. 1979 December; 16(6):710-8), Chulay J D, Haynes J D, Diggs C L. (Plasmodium falciparum: Assessment of in vitro growth by [3H]hypoxanthine incorporation. Exp. Parasitol. 1983 55:138-146), and Milhous W K, Weatherly N F, Bowdre J H, Desjardins R E. (In vitro activities of and mechanisms of resistance to antifol antimalarial drugs. Antimicrob Agents Chemother. 1985 April; 27(4):525-30). The system was limited to the assessment of the intrinsic activity against the erythrocytic asexual life cycle (blood schizontocides). Two Plasmodium falciparum clones from CDC/Indochina III (W-2) and CDC/Sierra Leone I (D-6) (Oduola A M, Weatherly N F, Bowdre J H, Desjardins R E. Plasmodium falciparum: cloning by single-erythrocyte micromanipulation and heterogeneity in vitro. Exp Parasitol. 1988 66(1):86-95) were used for all assays. TM91C235, a multiple drug resistant isolate from Thailand, was used for the prescreening assay. W-2 is resistant to chloroquine, quinine, and pyrimethamine and susceptible to mefloquine. D-6 tends to be more resistant to mefloquine and susceptible to chloroquine, quinine, and pyrimethamine. All documents cited in this paragraph are incorporated by reference in their entirety.
(§2) All parasites were maintained in continuous long term cultures in RPMI-1640 medium supplemented with 6% washed human A positive (A+) (erythrocytes, 25 mM Hepes, […], and 10% heat inactivated A+ human plasma or ALBUMAX® (lipid-rich bovine serum albumin; Invitrogen, Carlsbad, Calif.). All cultures and assays were conducted at 37° C. under an atmosphere of 5% CO2 and 5% O2, with a balance of N2.
(§3) The prescreening assay uses TM91C235 diluted at a 0.4% parasitemia in a 1% hematocrit in folic acid free and p-aminobenzoic acid free media RPMI-1640 and ALBUMAX®. One mg of the compound is typically dissolved in 100 μl of dimethyl sulfoxide (DMSO). The compound is further diluted in culture medium (FF) with ALBUMAX® for the first initial starting concentration. The rest of the stock drug solution was kept at −70° C. The isolate was preexposed, in duplicate, at three concentrations (25,000 ng/ml, 2,500 ng/ml, and 25 ng/ml) of the test compound for 48 hr in a 96-well microtiter plate (MTP) using the BIOMEK® 2000 automated laboratory workstation. Each MTP contains chloroquine as control to assess the relative activity of the compound and to monitor the response of TM91C235.
(§4) After the preincubation, [^3H]-hypoxanthine was added to each well of the MTP. (The assay relies on the incorporation of radiolabeled hypoxanthine by the parasites, which indicates reproduction, and inhibition of isotope incorporation was attributed to activity of known or candidate antimalarial drugs). After 72 hr of total incubation time, the MTP were frozen to lyse the erythrocytes and parasites. The parasite DNA was recovered by harvesting the lysate onto glass-fiber filter plates using a Packard FilterMate™ Cell Harvester. The radioactivity was counted on a Packard TopCount™ microplate scintillation counter. The results were recorded as counts per minutes (CPM) per well at each drug concentration divided by the arithmetic mean of the CPM from the three untreated infection parasite control wells.
(§5) The serial dilution assay was conducted using the same assay conditions and stock solution of the compound used for the preliminary screen, described above. Both the D-6 and the W-2 clones were used. The compounds were diluted two-fold over 11 different concentration ranges with a starting concentration that was based on the preliminary screen. […]

[3] = system: Plasmodium falciparum clone CDC/Indochina III (W-2); assay: In vitro antimalarial [3H]-hypoxanthine incorporation serial dilution assay, W2; type: cell-based; conditions: P. falciparum W2, parasites exposed for 72 hours; for IC50: Plasmodium falciparum, W2, 72 h
Text: as §1, §2, §3, §4, §5

[4] = system: Plasmodium yoelii nigeriensis; conditions: cited from earlier work
Plasmodium berghei = conditions: cited from earlier work
Plasmodium cynomolgi = conditions: rhesus monkey; cited from earlier work
Plasmodium falciparum = conditions: non-immune patients, as compared to controls; cited from earlier work
Plasmodium vivax = conditions: non-immune patients, as compared to controls; cited from earlier work

| Molecule | IC50 [1] | IC50 [2] | IC50 [3] | also measured |
| --- | --- | --- | --- | --- |
| CC[C@H]1OC(=O)[C@H](C)[C@@H](O[C@H]2C[C@@](C)(OC)[C@@H](O)[C@H](C)O2)[C@H](C)[C@@H](O[C@@H]2O[C@H](C)C[C@H](N(C)C)[C@H]2O)[C@](C)(O)C[C@@H](C)CN(CCCN(CCC#N)C(=O)Nc2cccc3ccccc23)[C@H](C)[C@@H](O)[C@]1(C)O [Compound 15] | 0.263 µg/mL (≈ 0.259 µM) | 0.539 µg/mL (≈ 0.531 µM) | 1.42 µg/mL (≈ 1.4 µM) | – |
| CC[C@H]1OC(=O)[C@H](C)[C@@H](O[C@H]2C[C@@](C)(OC)[C@@H](O)[C@H](C)O2)[C@H](C)[C@@H](O[C@@H]2O[C@H](C)C[C@H](N(C)C)[C@H]2O)[C@](C)(O)C[C@@H](C)CN(CCCN(CCC#N)C(=O)NC(C)C)[C@H](C)[C@@H](O)[C@]1(C)O [Compound 19] | 1.19 µg/mL (≈ 1.28 µM) | > 0.797 µg/mL | > 1.76 µg/mL | – |
| CC[C@H]1OC(=O)[C@H](C)[C@@H](O[C@H]2C[C@@](C)(OC)[C@@H](O)[C@H](C)O2)[C@H](C)[C@@H](O[C@@H]2O[C@H](C)C[C@H](N(C)C)[C@H]2O)[C@](C)(O)C[C@@H](C)CN(CCCN(CCC#N)C(=O)Nc2cc(OC)c(OC)c(OC)c2)[C@H](C)[C@@H](O)[C@]1(C)O [Compound 24] | – | – | – | IC50 TM91C235 [1]: 0.2719 µg/mL (≈ 0.258 µM); IC50 D6 [2]: 0.4872 µg/mL (≈ 0.462 µM); IC50 W2 [3]: 1.7881 µg/mL (≈ 1.7 µM) |
| CC[C@H]1OC(=O)[C@H](C)[C@@H](O)[C@H](C)[C@@H](O[C@@H]2O[C@H](C)C[C@H](N(C)C)[C@H]2O)[C@](C)(O)C[C@@H](C)CN(CCCNC(=S)NCc2ccccc2)[C@H](C)[C@@H](O)[C@]1(C)O [Compound 25] | 1.21 µg/mL (≈ 1.54 µM) | > 0.797 µg/mL | > 1.76 µg/mL | – |
| CC[C@H]1OC(=O)[C@H](C)[C@@H](O[C@H]2C[C@@](C)(OC)[C@@H](O)[C@H](C)O2)[C@H](C)[C@@H](O[C@@H]2O[C@H](C)C[C@H](N(C)C)[C@H]2O)[C@](C)(O)C[C@@H](C)CN(CCCNC(=S)Nc2cccc3ccccc23)[C@H](C)[C@@H](O)[C@]1(C)O [Compound 9] | 0.159 µg/mL (≈ 0.163 µM) | 0.144 µg/mL (≈ 0.147 µM) | 0.17 µg/mL (≈ 0.174 µM) | – |
| CC[C@H]1OC(=O)[C@H](C)[C@@H](O[C@H]2C[C@@](C)(OC)[C@@H](O)[C@H](C)O2)[C@H](C)[C@@H](O[C@@H]2O[C@H](C)C[C@H](N(C)C)[C@H]2O)[C@](C)(O)C[C@@H](C)CN(CCCNC(=O)Nc2ccccc2C(F)(F)F)[C@H](C)[C@@H](O)[C@]1(C)O [Compound 2] | 0.23 µg/mL (≈ 0.234 µM) | 0.311 µg/mL (≈ 0.318 µM) | 0.36 µg/mL (≈ 0.368 µM) | – |
| CC[C@H]1OC(=O)[C@H](C)[C@@H](O)[C@H](C)[C@@H](O[C@@H]2O[C@H](C)C[C@H](N(C)C)[C@H]2O)[C@](C)(O)C[C@@H](C)CN(CCCNC(=O)Nc2ccc3ccccc3c2)[C@H](C)[C@@H](O)[C@]1(C)O [Compound 27] | 0.312 µg/mL (≈ 0.389 µM) | 0.716 µg/mL (≈ 0.891 µM) | 0.467 µg/mL (≈ 0.582 µM) | – |
| CC[C@H]1OC(=O)[C@H](C)[C@@H](O)[C@H](C)[C@@H](O[C@@H]2O[C@H](C)C[C@H](N(C)C)[C@H]2O)[C@](C)(O)C[C@@H](C)CN(CCCNC(=S)Nc2cccc3ccccc23)[C@H](C)[C@@H](O)[C@]1(C)O [Compound 29] | 0.297 µg/mL (≈ 0.363 µM) | 0.954 µg/mL (≈ 1.16 µM) | 0.172 µg/mL (≈ 0.21 µM) | – |
| CC[C@H]1OC(=O)[C@H](C)[C@@H](O[C@H]2C[C@@](C)(OC)[C@@H](O)[C@H](C)O2)[C@H](C)[C@@H](O[C@@H]2O[C@H](C)C[C@H](N(C)C)[C@H]2O)[C@](C)(O)C[C@@H](C)CN(CCCN(CCC#N)C(=O)Nc2ccc3ccccc3c2)[C@H](C)[C@@H](O)[C@]1(C)O [Compound 7] | 0.143 µg/mL (≈ 0.141 µM) | 0.156 µg/mL (≈ 0.154 µM) | 0.298 µg/mL (≈ 0.294 µM) | – |
| CC[C@H]1OC(=O)[C@H](C)[C@@H](O)[C@H](C)[C@@H](O[C@@H]2O[C@H](C)C[C@H](N(C)C)[C@H]2O)[C@](C)(O)C[C@@H](C)CN(CCCN(CCC#N)C(=O)NC(C)c2cccc3ccccc23)[C@H](C)[C@@H](O)[C@]1(C)O (stereo partly drawn) [Compound 26] | 0.39 µg/mL (≈ 0.441 µM) | > 0.797 µg/mL | 0.361 µg/mL (≈ 0.408 µM) | – |
| CC[C@H]1OC(=O)[C@H](C)[C@@H](O[C@H]2C[C@@](C)(OC)[C@@H](O)[C@H](C)O2)[C@H](C)[C@@H](O[C@@H]2O[C@H](C)C[C@H](N(C)C)[C@H]2O)[C@](C)(O)C[C@@H](C)CN(CCCNC(=O)NS(=O)(=O)c2ccc(C)cc2)[C@H](C)[C@@H](O)[C@]1(C)O [Compound 20] | 1.06 µg/mL (≈ 1.07 µM) | > 0.797 µg/mL | > 1.76 µg/mL | – |
| CC[C@H]1OC(=O)[C@H](C)[C@@H](O[C@H]2C[C@@](C)(OC)[C@@H](O)[C@H](C)O2)[C@H](C)[C@@H](O[C@@H]2O[C@H](C)C[C@H](N(C)C)[C@H]2O)[C@](C)(O)C[C@@H](C)CN(CCCNC(=S)NCCc2ccccc2)[C@H](C)[C@@H](O)[C@]1(C)O [Compound 14] | 0.215 µg/mL (≈ 0.225 µM) | 0.232 µg/mL (≈ 0.242 µM) | 0.18 µg/mL (≈ 0.188 µM) | – |
| CC[C@H]1OC(=O)[C@H](C)[C@@H](O[C@H]2C[C@@](C)(OC)[C@@H](O)[C@H](C)O2)[C@H](C)[C@@H](O[C@@H]2O[C@H](C)C[C@H](N(C)C)[C@H]2O)[C@](C)(O)C[C@@H](C)CN(CCCN(CCC#N)C(=S)NCCc2ccccc2)[C@H](C)[C@@H](O)[C@]1(C)O [Compound 5] | 0.0732 µg/mL (≈ 0.0726 µM) | 0.091 µg/mL (≈ 0.0902 µM) | 0.169 µg/mL (≈ 0.167 µM) | – |
| midecamycinin | – | – | – | activity in mouse model, Plasmodium yoelii nigeriensis [4]: active; activity in mouse model, Plasmodium berghei (Plasmodium berghei): active; efficacy in monkey model (Plasmodium cynomolgi): no efficacy |
| CC[C@H]1OC(=O)[C@H](C)[C@@H](O[C@H]2C[C@@](C)(OC)[C@@H](O)[C@H](C)O2)[C@H](C)[C@@H](O[C@@H]2O[C@H](C)C[C@H](N(C)C)[C@H]2O)[C@](C)(O)C[C@@H](C)CN(CCCNC(=S)NCCCc2ccccc2)[C@H](C)[C@@H](O)[C@]1(C)O [Compound 3] | 0.117 µg/mL (≈ 0.12 µM) | 0.176 µg/mL (≈ 0.181 µM) | 0.112 µg/mL (≈ 0.116 µM) | – |
| CC[C@H]1OC(=O)[C@H](C)[C@@H](O[C@H]2C[C@@](C)(OC)[C@@H](O)[C@H](C)O2)[C@H](C)[C@@H](O[C@@H]2O[C@H](C)C[C@H](N(C)C)[C@H]2O)[C@](C)(O)C[C@@H](C)CN(C)[C@H](C)[C@@H](O)[C@]1(C)O [azithromycin, reference compound] | 1.62 µg/mL (≈ 2.16 µM) | 0.797 µg/mL (≈ 1.06 µM) | 1.76 µg/mL (≈ 2.35 µM) | prophylactic efficacy for Plasmodium falciparum (Plasmodium falciparum): 71.6%; prophylactic efficacy for Plasmodium vivax (Plasmodium vivax): 98.9%; efficacy in monkey model (Plasmodium cynomolgi): active |
